# Reference: patent US7101878B1 (Agouron Pharmaceuticals, Inc., priority 1998, dated 2006)
# Where two headings read alike, the source gives them in different places.
# Key:
# D2 Dopamine = D2 Dopamine (Homo sapiens, UniProt P14416); experiment: Selectivity: D2 Dopamine
# bovine GnRH receptor = biological target: T1, bovine GnRH receptor (Bos taurus, UniProt P32236); experiment: Radioligand binding, 125I-GnRH-A, bovine pituitary membranes
# T1 construct: membranes were prepared from bovine pituitary; from tissue; host or cells: bovine pituitary
# T1 sequence (P32236 1-328): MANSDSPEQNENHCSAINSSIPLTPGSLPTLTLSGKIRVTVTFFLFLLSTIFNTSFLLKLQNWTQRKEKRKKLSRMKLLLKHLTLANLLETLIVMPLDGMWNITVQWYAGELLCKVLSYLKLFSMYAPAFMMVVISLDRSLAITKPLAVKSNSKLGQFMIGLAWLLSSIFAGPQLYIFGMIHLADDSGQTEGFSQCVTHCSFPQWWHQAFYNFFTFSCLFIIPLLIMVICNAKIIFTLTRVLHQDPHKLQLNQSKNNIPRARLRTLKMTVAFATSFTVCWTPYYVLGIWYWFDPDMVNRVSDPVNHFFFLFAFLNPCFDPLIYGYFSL
# Procedure, shortened: (§1)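 Bound label captured on 0.1% polyethyleneimine-treated GF/C filters, washed three times with PBS, counted. IC50 derived; identical set-up for every species.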
# 5-HT7 = 5-HT7 (Homo sapiens, UniProt P34969); experiment: Selectivity: 5-HT7
# human GnRH receptor = biological target: T2, human GnRH receptor (Homo sapiens, UniProt P30968); experiment: Radioligand binding, 125I-GnRH-A displacement, membranes of HEK 293 cells with human GnRH receptor
# T2 construct: expressed in transfected cells; host or cells: HEK 293 (hGnRH-R/293, from Dr. Stuart Sealfon)
# T2 sequence (P30968 1-328): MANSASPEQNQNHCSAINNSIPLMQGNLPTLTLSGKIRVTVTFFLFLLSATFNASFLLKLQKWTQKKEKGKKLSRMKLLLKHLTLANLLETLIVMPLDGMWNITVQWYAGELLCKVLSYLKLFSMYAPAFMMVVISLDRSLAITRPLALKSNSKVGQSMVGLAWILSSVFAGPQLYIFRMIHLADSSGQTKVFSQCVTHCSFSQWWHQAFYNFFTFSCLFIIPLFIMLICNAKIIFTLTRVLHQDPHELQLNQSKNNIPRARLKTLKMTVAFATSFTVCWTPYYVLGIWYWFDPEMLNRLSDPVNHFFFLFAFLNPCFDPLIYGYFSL
# Procedure, shortened: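 Bound tracer was separated by filtration through polyethyleneimine-soaked GF/C filters and counted by liquid scintillation. IC50 from curve fitting; other species were tested under the same conditions.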
# [1] = Pharmacokinetic studies / bioavailability in rats; assay type: in vivo, rat; settings: rat male; for half-life: iv, 10 mg/kg
# rat GnRH receptor = biological target: T3, rat GnRH receptor (Rattus norvegicus, UniProt P30969); experiment: Radioligand binding, 125I-GnRH-A, rat pituitary membranes; parameters: membranes were prepared from rat pituitary; from tissue; host or cells: rat pituitary
# T3 sequence (P30969 1-327): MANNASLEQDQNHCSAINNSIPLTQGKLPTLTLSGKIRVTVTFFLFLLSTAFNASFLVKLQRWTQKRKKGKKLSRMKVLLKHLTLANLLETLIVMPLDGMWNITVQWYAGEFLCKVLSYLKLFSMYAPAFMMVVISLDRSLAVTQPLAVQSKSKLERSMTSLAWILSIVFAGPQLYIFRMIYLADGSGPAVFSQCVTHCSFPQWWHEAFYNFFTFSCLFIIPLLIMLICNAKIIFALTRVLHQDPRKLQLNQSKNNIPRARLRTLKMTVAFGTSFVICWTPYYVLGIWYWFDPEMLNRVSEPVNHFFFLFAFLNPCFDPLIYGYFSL
# Procedure, shortened: as §1
# mouse GnRH receptor = biological target: T4, mouse GnRH receptor (Mus musculus, UniProt Q01776); experiment: Radioligand binding, 125I-GnRH-A, 293 cells expressing mouse GnRH receptors
# T4 construct: expressed in transfected cells; host or cells: 293 cells
# T4 sequence (Q01776 1-327): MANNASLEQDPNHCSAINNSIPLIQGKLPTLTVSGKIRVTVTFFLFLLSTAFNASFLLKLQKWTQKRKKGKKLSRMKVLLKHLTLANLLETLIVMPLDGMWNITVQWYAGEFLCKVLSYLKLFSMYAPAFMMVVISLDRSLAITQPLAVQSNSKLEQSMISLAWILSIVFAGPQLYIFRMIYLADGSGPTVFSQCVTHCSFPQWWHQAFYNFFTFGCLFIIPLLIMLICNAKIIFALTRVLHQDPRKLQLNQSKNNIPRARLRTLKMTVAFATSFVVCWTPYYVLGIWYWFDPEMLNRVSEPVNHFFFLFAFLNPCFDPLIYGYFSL
# Procedure, shortened: as §1
# [2] = Metabolism rate, pmol/min/mg at 1 μM, human; assay type: in vitro ADME; settings: 1 μM compound
# [3] = second value marked * (mostly in parentheses), asterisk not explained, read-out: hGnRH IC50, value marked *
# [4] = male, rat, plasma, po, 20 mg/kg, p.o. 20 mg/kg, vehicle per footnote (DMSO/cremophor/saline)
# Chain of 5-HT7 (P34969 whole entry, species assumed): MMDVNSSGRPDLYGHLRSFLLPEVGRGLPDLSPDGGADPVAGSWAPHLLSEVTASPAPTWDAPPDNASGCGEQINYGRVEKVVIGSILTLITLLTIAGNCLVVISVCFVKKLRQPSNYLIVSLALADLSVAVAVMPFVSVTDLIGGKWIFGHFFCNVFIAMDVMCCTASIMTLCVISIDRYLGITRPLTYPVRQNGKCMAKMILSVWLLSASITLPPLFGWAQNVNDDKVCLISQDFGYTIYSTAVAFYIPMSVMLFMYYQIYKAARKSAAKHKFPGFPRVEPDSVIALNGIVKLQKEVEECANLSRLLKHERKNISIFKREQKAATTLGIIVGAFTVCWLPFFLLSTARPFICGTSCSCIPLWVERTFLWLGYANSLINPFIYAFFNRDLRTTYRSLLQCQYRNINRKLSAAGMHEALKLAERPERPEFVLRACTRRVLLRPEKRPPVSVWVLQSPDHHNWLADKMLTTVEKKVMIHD
# Chain of D2 Dopamine (P14416 whole entry): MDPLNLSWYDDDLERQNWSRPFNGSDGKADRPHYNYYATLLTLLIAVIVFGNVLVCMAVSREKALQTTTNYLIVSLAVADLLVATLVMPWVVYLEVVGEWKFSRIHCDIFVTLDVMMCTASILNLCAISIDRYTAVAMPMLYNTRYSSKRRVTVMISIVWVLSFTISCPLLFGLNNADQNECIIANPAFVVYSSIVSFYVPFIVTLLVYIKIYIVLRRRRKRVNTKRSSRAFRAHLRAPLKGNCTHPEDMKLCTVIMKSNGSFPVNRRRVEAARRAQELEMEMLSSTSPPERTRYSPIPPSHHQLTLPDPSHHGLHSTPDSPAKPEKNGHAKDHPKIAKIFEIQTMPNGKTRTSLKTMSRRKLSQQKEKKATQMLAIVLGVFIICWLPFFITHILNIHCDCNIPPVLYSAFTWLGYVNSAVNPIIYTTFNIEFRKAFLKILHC
SMILES,Ki (D2 Dopamine) [nM],"IC50 (bovine GnRH receptor; means ± SE of at least three experiments performed in duplicate, read-out: Bovine IC50) [nM]",Ki (5-HT7) [nM],"IC50 (human GnRH receptor; means ± SE of at least three experiments performed in duplicate, read-out: Human IC50) [nM]",IC50 (human GnRH receptor; read-out: hGnRH IC50) [nM],IC50 (human GnRH receptor; [3]) [nM],"half-life ([1]; male, rat, plasma) [h]","IC50 (rat GnRH receptor; means ± SE of at least three experiments performed in duplicate, read-out: Rat IC50) [nM]",IC50 (rat GnRH receptor; read-out: rGnRH IC50) [nM],"IC50 (mouse GnRH receptor; means ± SE of at least three experiments performed in duplicate, read-out: Mouse IC50) [nM]",IC50 (mouse GnRH receptor; read-out: mGnRH IC50) [nM],IC50 (bovine GnRH receptor; read-out: bGnRH IC50) [nM],"Cmax [1, 4] [nM]","Tmax [1, 4] [h]","Fp.o. ([1]; p.o. 20 mg/kg, vehicle per footnote (DMSO/cremophor/saline))",Human pmol/min/mg 1 μM [2] [pmol/min/mg]
Cc1cnc(CNC(=O)c2ccc(Cc3cc4c(cc3C)C(C)(C)CCC4(C)C)o2)cn1 [Compound 13],> 3200,530 ± 100,> 4400,110 ± 20,110,40,1.5,60 ± 8,60,120 ± 20,120,,,,,
Cc1cc2c(cc1Cc1ccc(C(=O)NCc3nc4ccccc4[nH]3)o1)C(C)(C)CCC2(C)C [Compound 48],> 3200,,> 4400,,50,40,1.1,,6,,10,490,330,1.5,4% (20 mg/kg)^1,289
